Results as given in patent US10308636B2, “Aromatic heterocyclic compound” (MITSUBISHI TANABE PHARMA CORPORATION, priority 2012, dated 2019).

Tests used:
Male ICR mice = assay: Triglyceride (TG) elevation-suppressing action in plasma by lipid administration; format: in vivo, mouse; settings: 5 mg/kg oral, fasted ICR mice, lipid (Intralipos 20%, 10 mL/kg) 30 minutes after compound, plasma TG 2 hours after lipid, relative to solvent control
Protocol: Male ICR mice, 6 to 9 weeks old, were fasted overnight, and a test compound was suspended in 0.2% carboxymethylcellulose solution and the suspension was orally administered. After 30 minutes, lipid (Intralipos, 20%, Otsuka Pharmaceutical, 10 mL/kg) was orally administered. Blood was sampled through the caudal vein immediately before and 2 hours after the administration of the lipid to obtain plasma. TG in the plasma was determined by using Triglyceride E-Test Wako (Wako Pure Chemical), and the elevation value of TG in the plasma by the lipid administration was calculated. By using the plasma TG elevation value in the solvent control group as the control, the plasma TG elevation-suppressing ratio was calculated in the test compound administrating group.

Male C57BL/6J mice = assay: Food intake-suppressing action (high fat diet); format: in vivo, mouse; settings: 5 mg/kg oral, fasted C57BL/6J mice, food intake for 4 hours, relative to solvent control
Protocol: Male C57BL/6J mice, 7 to 10 weeks old, were fasted overnight, and a test compound was suspended in 0.2% carboxymethylcellulose solution and the suspension was orally administered. Immediately, the animals were given high fat diet (Oriental Yeast, 60 cal % fat) and allowed to take freely. The food intake for 4 hours was determined, and the decrease ratio of the food intake (food intake-suppressing ratio) was calculated in the test compound administrating group, relative to the food intake in the solvent control group as a control.

Male KK-Ay mice = assay: Body weight gain-suppressing, hypoglycemic and plasma insulin-decreasing action in KK-Ay mouse; format: in vivo; settings: 30 mg/kg/day oral once a day for 2 weeks, KK-Ay mice on high fat diet; for Hypoglycemic action (30 mg/kg/day): blood sugar after overnight fast; for Hypoglycemic action (30 mg/kg/day) / Plasma insulin-decreasing action (30 mg/kg/day): relative to solvent control; for Plasma insulin-decreasing action (30 mg/kg/day): plasma insulin after overnight fast; for Body weight gain-suppressing action (30 mg/kg/day): relative to body weight gain of solvent control as 100%
Protocol: Male KK-Ay mice, 8 weeks old, were given high fat diet (Oriental Yeast, 60 cal % fat), the test compound was suspended in 0.2% carboxymethylcellulose solution and the suspension was orally administered once a day. After the oral administration was repeated for 2 weeks, the body weight gain-suppressing ratio of the test compound was calculated, relative to the body weight gain of the solvent control group during the test period as 100%. After the final administration, the animals were fasted overnight, and blood was sampled through the caudal vein. The blood sugar and the insulin in the plasma were determined by using Glucose C II-Test Wako (Wako Pure Chemical) and Mouse Insulin Measurement Kit (Morinaga Institute of Biological Science), respectively.

Row | Structure (SMILES) | Plasma TG elevation suppressing ratio (5 mg/kg) (Male ICR mice) [%] | Food intake-suppressing ratio (5 mg/kg) (Male C57BL/6J mice) [%] | Hypoglycemic action (30 mg/kg/day) (Male KK-Ay mice) [%] | Plasma insulin-decreasing action (30 mg/kg/day) (Male KK-Ay mice) [%] | Body weight gain-suppressing action (30 mg/kg/day) (Male KK-Ay mice) [%]
1 | CC(C)(COc1ccc(-c2ccc(-c3ncc(CCOc4ccccc4)[nH]3)cn2)cc1)C(=O)O [Example 1-58] | 66 | 68 | – | – | –
2 | COC(=O)C(C)(C)COc1ccc(-c2ccc(-c3nc(-c4noc(C)n4)cn3COCC[Si](C)(C)C)cn2)cc1 [Example 7] | – | – | 42 | 34 | 34
3 | CC(C)(COc1ccc(-c2ccc(-c3nc(COCc4ccccc4)c[nH]3)cn2)cc1)C(=O)O [Example 10] | – | – | 37 | 40 | 32
4 | CCOCc1nc(-c2ccc(-c3ccc(OCC(C)(C)C(=O)O)cc3)nc2)[nH]c1Cl [Example 31-2] | 74 | 74 | 55 | 45 | 41
5 | Cc1cc(OCC(C)(C)C(=O)O)ncc1-c1ccc(-c2nc(C#N)c[nH]2)cc1 [Example 32-2] | 63 | 65 | – | – | –
6 | O=C(O)Cc1ccc(C2CCN(c3ccc(-c4nc(C(F)(F)F)c[nH]4)cn3)CC2)cc1 [Example 43-2] | 66 | 82 | – | – | –
7 | Nc1nnc(-c2ccc(Br)cc2)o1 [Example 61] | – | – | 44 | 50 | 36
8 | CCOc1nc(-c2ccc(-c3ccc(O[C@H]4CC[C@@H](C(=O)OCC)CC4)nc3)cc2)nn1COCC[Si](C)(C)C [Example 67] | – | – | 47 | 14 | 43
9 | COC(=O)C(C)(C)COc1ccc(-c2ccc(-c3nc(OCC(F)(F)C(F)(F)F)n(COCC[Si](C)(C)C)n3)cc2)cn1 [Example 74] | – | – | 32 | 29 | 41
10 | NC(=O)c1ccc(Br)cc1F [Example 78] | – | – | 57 | 69 | 56
11 | COc1ccc(-c2n[nH]c(-c3ccc(-c4ccc(OCC(C)(C)C(=O)O)nc4)cc3)n2)cc1 [Example 110] | 73.0 | 68 | – | – | –
